In US12421254B2, “KRAS modulators and uses thereof” (Quanta Therapeutics, Inc., priority 2023, dated 2025):
pIC50: −log10 of the molar value.

Legend:
[1] = system: phospho-ERK in GP2D (KRAS-G12D) cells; assay: pERK In Cell Western (ICW) assay (Method B), GP2D; format: cell-based; details: GP2d, 3 h, Table 4
How it was run: (§1)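 After overnight attachment, cells received nine half-log compound concentrations for 3 hours, were fixed, permeabilized and probed with phospho-ERK antibody plus DRAQ5. Normalized pERK signal versus blank control yields IC50 via variable-slope four-parameter fit.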

[2] = target: GST-tagged KRAS-G12D (2-169) (Homo sapiens, UniProt P01116, G12D); assay: Nucleotide exchange assay (NEA), SOS-mediated, HTRF, KRAS G12D; format: biochemical; details: Table 4; IC50 extracted at 30 min; 20 nM SOScat; read-out: NEA G12D IC50
How it was run: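 SOS1cat-driven loading of fluorescent GTP-DY-647P1 (150 nM) onto GST-KRAS-G12D (2-169, 0.25 nM) read by time-resolved FRET; SOScat 20 nM, compound preincubated with KRAS 1 h at RT. Signal blanked to no-SOS reactions, normalized to DMSO; IC50 fitted from the 30-min read.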

[3] = system: phospho-ERK in SW620 (KRAS-G12V) cells; assay: pERK In Cell Western (ICW) assay (Method B), SW620; format: cell-based; details: Homo sapiens, SW-620, 3 h, Table 4
How it was run: as §1

[4] = target: GST-tagged KRAS-G12V (2-169) (Homo sapiens, UniProt P01116, G12V); assay: Nucleotide exchange assay (NEA), SOS-mediated, HTRF, KRAS G12V; format: biochemical; details: Table 4; IC50 extracted at 90 min; 80 nM SOS
How it was run: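 Exchange onto fluorescent GTP-DY-647P1 (150 nM final) catalysed by 80 nM SOS1cat was followed by Tb-anti-GST HTRF at RT for up to 90 min, after 1 h compound pre-incubation with 0.25 nM GST-tagged KRAS-G12V (2-169), pH 7.3. DMSO = 0%, no-SOS blank = 100%; 4-parameter IC50 taken at 90 min.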

Chain of GST-tagged KRAS-G12V (2-169) (P01116 2-169 isoform P01116-2 G12V): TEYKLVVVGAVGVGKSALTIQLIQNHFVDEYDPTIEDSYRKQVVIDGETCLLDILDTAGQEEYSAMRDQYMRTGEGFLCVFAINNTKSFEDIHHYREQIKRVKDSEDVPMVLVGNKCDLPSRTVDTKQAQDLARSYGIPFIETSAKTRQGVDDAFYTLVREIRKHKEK
Chain of GST-tagged KRAS-G12D (2-169) (P01116 2-169 isoform P01116-2 G12D): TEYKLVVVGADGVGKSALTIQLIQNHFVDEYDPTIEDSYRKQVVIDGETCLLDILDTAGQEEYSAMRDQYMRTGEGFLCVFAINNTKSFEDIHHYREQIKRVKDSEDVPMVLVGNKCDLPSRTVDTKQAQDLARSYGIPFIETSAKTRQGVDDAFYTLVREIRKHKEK

Row | Compound | pIC50 [1] | pIC50 [2] | pIC50 [3] | pIC50 [4]
1 | N#Cc1c(N)sc2c1C1(CC2)CN(c2nc(OC[C@@]34CCCN3C[C@H](F)C4)nc(N(CCO)Cc3ccc[nH]c3=O)n2)C1 [Compound 136, 2-amino-1′-[4-[[(2R,8S)-2-fluoro-1,2,3,5,6,7-hexahydropyrrolizin-8-yl]methoxy]-6-[2-hydroxyethyl-[(2-oxo-1H-pyridin-3-yl)methyl]amino]-1,3,5-triazin-2-yl]spiro[5,6-dihydrocyclopenta[b]thiophene-4,3′-azetidine]-3-carbonitrile] | 4.70 to 6.00 | 6.00 to 7.00 | 4.70 to 6.00 | 6.00 to 7.00
2 | CCN(c1nc(OCC2(CN3C4CCC3COC4)CC2)nc(N2CC3(C2)SCc2sc(N)c(C#N)c23)n1)[C@H](C)c1cccnc1N [Compound 203, 2-amino-1′-[4-[[(1R)-1-(2-amino-3-pyridyl)ethyl]-ethyl-amino]-6-[[1-(3-oxa-8-azabicyclo[3.2.1]octan-8-ylmethyl)cyclopropyl]methoxy]-1,3,5-triazin-2-yl]spiro[6H-thieno[3,4-b]thiophene-4,3′-azetidine]-3-carbonitrile] | 7.00 to 8.00 | > 8.00 | 7.00 to 8.00 | > 8.00
3 | CCN(c1nc(OC[C@@H]2CC(F)(F)CN2C)nc(N2CC3(C2)SCc2sc(N)c(C#N)c23)n1)[C@H](C)c1cccnc1N [Compound 176, 2-amino-1′-[4-[[(1R)-1-(2-amino-3-pyridyl)ethyl]-ethyl-amino]-6-[[(2S)-4,4-difluoro-1-methyl-pyrrolidin-2-yl]methoxy]-1,3,5-triazin-2-yl]spiro[6H-thieno[3,4-b]thiophene-4,3′-azetidine]-3-carbonitrile] | 4.70 to 6.00 | 6.00 to 7.00 | 7.00 to 8.00 | > 8.00
4 | N#Cc1c(N)sc2c1C1(CC2)CN(c2nc(OC[C@@]34CCCN3C[C@H](F)C4)nc(N(CCO)Cc3cccnc3N)n2)C1 [Compound 107, 2-amino-1′-[4-[(2-amino-3-pyridyl)methyl-(2-hydroxyethyl)amino]-6-[[(2R,8S)-2-fluoro-1,2,3,5,6,7-hexahydropyrrolizin-8-yl]methoxy]-1,3,5-triazin-2-yl]spiro[5,6-dihydrocyclopenta[b]thiophene-4,3′-azetidine]-3-carbonitrile] | 7.00 to 8.00 | > 8.00 | 7.00 to 8.00 | > 8.00
5 | CCN(c1nc(OC[C@@H]2C[C@@H](F)CN2)nc(N2CC3(C2)SCc2sc(N)c(C#N)c23)n1)[C@H](C)c1cccnc1N [Compound 209, 2-amino-1′-[4-[[(1R)-1-(2-amino-3-pyridyl)ethyl]-ethyl-amino]-6-[[(2S,4R)-4-fluoropyrrolidin-2-yl]methoxy]-1,3,5-triazin-2-yl]spiro[6H-thieno[3,4-b]thiophene-4,3′-azetidine]-3-carbonitrile] | > 8.00 | > 8.00 | 7.00 to 8.00 | > 8.00
6 | CCN(c1nc(OC[C@@]23CCCN2C[C@H](F)C3)nc(N2CC3(CCc4sc(N)c(C#N)c43)C2=O)n1)[C@H](C)c1cccnc1N (stereo partly drawn) [Compound 201, 2-amino-1′-[4-[[(1R)-1-(2-amino-3-pyridyl)ethyl]-ethyl-amino]-6-[[(2R,8S)-2-fluoro-1,2,3,5,6,7-hexahydropyrrolizin-8-yl]methoxy]-1,3,5-triazin-2-yl]-2′-oxo-spiro[5,6-dihydrocyclopenta[b]thiophene-4,3′-azetidine]-3-carbonitrile] | 7.00 to 8.00 | > 8.00 | 7.00 to 8.00 | > 8.00
7 | CC(c1nccnc1N)N(C)c1nc(OC[C@@]23CCCN2C[C@H](F)C3)nc(N2CC3(C2)SCc2sc(N)c(C#N)c23)n1 (stereo partly drawn) [Compound 134, 2-amino-1′-[4-[1-(3-aminopyrazin-2-yl)ethyl-methyl-amino]-6-[[(2R,8S)-2-fluoro-1,2,3,5,6,7-hexahydropyrrolizin-8-yl]methoxy]-1,3,5-triazin-2-yl]spiro[6H-thieno[3,4-b]thiophene-4,3′-azetidine]-3-carbonitrile] | 7.00 to 8.00 | > 8.00 | > 8.00 | > 8.00
8 | N#Cc1c(N)sc2c1C1(CC2)CN(c2nc(OCC3(CN4CCOCC4)CC3)nc(N3CCCC(O)(C(F)F)C3)n2)C1 (stereo not shown) [Compound 106, 2-amino-1′-[4-[3-(difluoromethyl)-3-hydroxy-1-piperidyl]-6-[[1-(morpholinomethyl)cyclopropyl]methoxy]-1,3,5-triazin-2-yl]spiro[5,6-dihydrocyclopenta[b]thiophene-4,3′-azetidine]-3-carbonitrile] | 6.00 to 7.00 | 7.00 to 8.00 | 4.70 to 6.00 | 7.00 to 8.00
9 | CC(c1nccnc1N)N(CCO)c1nc(OC[C@@]23CCCN2C[C@H](F)C3)nc(N2CC3(CCc4sc(N)c(C#N)c43)C2)n1 (stereo partly drawn) [Compound 124, 2-amino-1′-[4-[1-(3-aminopyrazin-2-yl)ethyl-(2-hydroxyethyl)amino]-6-[[(2R,8S)-2-fluoro-1,2,3,5,6,7-hexahydropyrrolizin-8-yl]methoxy]-1,3,5-triazin-2-yl]spiro[5,6-dihydrocyclopenta[b]thiophene-4,3′-azetidine]-3-carbonitrile] | 6.00 to 7.00 | > 8.00 | 7.00 to 8.00 | > 8.00
10 | CCN(c1nc(OC[C@]2(CO)CCCN2C)nc(N2CC3(C2)SCc2sc(N)c(C#N)c23)n1)[C@H](C)c1cccnc1N [Compound 213, 2-amino-1′-[4-[[(1R)-1-(2-amino-3-pyridyl)ethyl]-ethyl-amino]-6-[[2-(hydroxymethyl)-1-methyl-pyrrolidin-2-yl]methoxy]-1,3,5-triazin-2-yl]spiro[6H-thieno[3,4-b]thiophene-4,3′-azetidine]-3-carbonitrile] | 7.00 to 8.00 | > 8.00 | 7.00 to 8.00 | > 8.00
11 | N#Cc1c(N)sc2c1C1(CC2)CN(c2nc(OC[C@@]34CCCN3C[C@H](F)C4)nc(N3CCCC(O)(C(F)F)C3)n2)C1 (stereo partly drawn) [Compound 87, 2-amino-1′-[4-[3-(difluoromethyl)-3-hydroxy-1-piperidyl]-6-[[(2R,8S)-2-fluoro-1,2,3,5,6,7-hexahydropyrrolizin-8-yl]methoxy]-1,3,5-triazin-2-yl]spiro[5,6-dihydrocyclopenta[b]thiophene-4,3′-azetidine]-3-carbonitrile] | 6.00 to 7.00 | 7.00 to 8.00 | 4.70 to 6.00 | 7.00 to 8.00
12 | N#Cc1c(N)sc2c1C1(CC2)CN(c2nc(OC[C@@]34CCCN3C[C@H](F)C4)nc(N3CCCCC3C(N)=O)n2)C1 (stereo partly drawn) [Compound 40, 1-[4-(2-amino-3-cyano-spiro[5,6-dihydrocyclopenta[b]thiophene-4,3′-azetidine]-1′-yl)-6-[[(2R,8S)-2-fluoro-1,2,3,5,6,7-hexahydropyrrolizin-8-yl]methoxy]-1,3,5-triazin-2-yl]piperidine-2-carboxamide] | 4.70 to 6.00 | 6.00 to 7.00 | ≤ 4.70 | 4.70 to 6.00
13 | CC(CO)N(Cc1cccnc1N)c1nc(OC[C@@]23CCCN2C[C@H](F)C3)nc(N2CC3(CCc4sc(N)c(C#N)c43)C2)n1 (stereo partly drawn) [Compound 149, 2-amino-1′-[4-[(2-amino-3-pyridyl)methyl-(2-hydroxy-1-methyl-ethyl)amino]-6-[[(2R,8S)-2-fluoro-1,2,3,5,6,7-hexahydropyrrolizin-8-yl]methoxy]-1,3,5-triazin-2-yl]spiro[5,6-dihydrocyclopenta[b]thiophene-4,3′-azetidine]-3-carbonitrile] | 4.70 to 6.00 | > 8.00 | 6.00 to 7.00 | > 8.00
